Data published in US20250282834A1, “PEPTIDE INHIBITORS FOR CHROMODOMAIN HELICASE DNA BINDING PROTEIN 4 (CHD4)” (THE REGENTS OF THE UNIVERSITY OF CALIFORNIA, priority 2022, published 2025).
Non-standard residues stand in square brackets, D forms with d. Residues, ends and D or L forms follow the SMILES beside them. No end group written: not given here. *: point of attachment. Orn = NCCC[C@H](N)C(=O)O; Cbz = O=C(OCc1ccccc1)*; βAla = NCCC(=O)O; CH2F = FC*

Legend:
[1] = molecular target: T1, CHD4 (Homo sapiens, UniProt Q14839); experiment: CHD4 and LANA protein expression by IFA and western blotting in PEL cells; assay type: cell-based; details: for recovery of full-length CHD4 by inhibitor pretreatment before VGN73: BC3 cells, Z-VAD-FMK 50 μM or bortezomib 25 nM 1 hour, then VGN73 18 μM 8 hours
T1 construct: endogenous in cells; host or cells: BC3, BCBL-1
T1 sequence (Q14839 whole entry): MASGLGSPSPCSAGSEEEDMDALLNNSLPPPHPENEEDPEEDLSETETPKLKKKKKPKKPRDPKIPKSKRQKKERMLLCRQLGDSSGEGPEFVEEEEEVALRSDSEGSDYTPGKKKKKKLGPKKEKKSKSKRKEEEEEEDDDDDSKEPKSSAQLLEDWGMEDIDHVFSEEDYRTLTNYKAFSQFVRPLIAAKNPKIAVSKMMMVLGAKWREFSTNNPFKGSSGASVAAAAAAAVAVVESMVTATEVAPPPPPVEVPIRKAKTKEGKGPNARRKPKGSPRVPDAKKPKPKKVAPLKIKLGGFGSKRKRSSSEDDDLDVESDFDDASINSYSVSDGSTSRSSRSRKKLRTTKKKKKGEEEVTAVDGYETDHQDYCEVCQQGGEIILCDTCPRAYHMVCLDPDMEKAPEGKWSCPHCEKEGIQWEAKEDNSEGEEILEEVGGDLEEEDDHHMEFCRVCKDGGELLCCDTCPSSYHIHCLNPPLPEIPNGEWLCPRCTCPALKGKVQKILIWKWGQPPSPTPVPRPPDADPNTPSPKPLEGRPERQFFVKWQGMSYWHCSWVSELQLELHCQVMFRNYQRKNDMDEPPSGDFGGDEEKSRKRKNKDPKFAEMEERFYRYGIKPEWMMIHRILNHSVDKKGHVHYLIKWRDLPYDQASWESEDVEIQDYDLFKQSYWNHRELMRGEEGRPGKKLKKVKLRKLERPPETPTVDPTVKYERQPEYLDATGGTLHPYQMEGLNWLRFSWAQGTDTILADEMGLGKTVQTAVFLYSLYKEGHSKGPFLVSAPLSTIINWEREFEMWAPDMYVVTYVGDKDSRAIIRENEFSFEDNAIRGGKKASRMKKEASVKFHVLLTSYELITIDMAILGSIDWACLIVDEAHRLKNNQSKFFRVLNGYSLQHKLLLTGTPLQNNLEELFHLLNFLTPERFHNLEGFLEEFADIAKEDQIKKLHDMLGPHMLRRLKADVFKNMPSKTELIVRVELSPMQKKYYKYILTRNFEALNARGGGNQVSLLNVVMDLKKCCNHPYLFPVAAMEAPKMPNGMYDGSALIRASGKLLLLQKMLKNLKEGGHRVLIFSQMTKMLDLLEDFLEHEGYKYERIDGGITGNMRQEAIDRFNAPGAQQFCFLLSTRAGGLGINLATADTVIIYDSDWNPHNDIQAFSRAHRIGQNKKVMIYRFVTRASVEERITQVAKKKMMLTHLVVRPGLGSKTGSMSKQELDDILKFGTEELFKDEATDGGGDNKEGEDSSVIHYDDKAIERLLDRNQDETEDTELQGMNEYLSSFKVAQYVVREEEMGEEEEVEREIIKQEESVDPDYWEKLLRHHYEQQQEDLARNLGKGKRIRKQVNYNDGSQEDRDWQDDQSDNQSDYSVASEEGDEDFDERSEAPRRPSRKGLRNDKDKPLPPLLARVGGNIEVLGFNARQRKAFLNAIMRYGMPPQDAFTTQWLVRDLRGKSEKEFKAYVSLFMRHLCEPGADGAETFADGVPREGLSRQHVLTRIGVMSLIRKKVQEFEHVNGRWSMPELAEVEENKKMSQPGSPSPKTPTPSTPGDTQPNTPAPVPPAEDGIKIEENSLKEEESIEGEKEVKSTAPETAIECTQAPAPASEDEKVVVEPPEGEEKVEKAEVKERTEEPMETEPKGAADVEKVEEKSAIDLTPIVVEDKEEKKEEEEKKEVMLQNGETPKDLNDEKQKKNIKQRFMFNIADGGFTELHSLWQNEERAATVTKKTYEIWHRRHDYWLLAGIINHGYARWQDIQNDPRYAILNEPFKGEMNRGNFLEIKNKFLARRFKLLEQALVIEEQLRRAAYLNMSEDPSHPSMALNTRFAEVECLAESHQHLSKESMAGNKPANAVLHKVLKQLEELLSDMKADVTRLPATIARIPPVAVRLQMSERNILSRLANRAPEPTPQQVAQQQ
Experimental: FIG. 3 Effect of VGN73 on CHD4 and LANA protein in tissue culture. FIG. 3. Amount of CHD4 and LANA protein expression was evaluated by IFA. BC3 cells were treated with VGN73 (18 μM) or mutant peptide (18 μM) for 24 hours. Then the cells were stained with the indicated antibodies. The scale is indicated in the panel. Cell volume. CHD4 and LANA signal intensity were compared. **; p<0.01, ***; p<0.001 versus the VGN73 group. FIG. 3b. Amount of CHD4 and LANA protein expression in total cell lysates was evaluated by western blotting. BC3 and BCBL-1 cells were treated with VGN73 at a concentration of IC50 or starved condition for 24 hours. The respective protein band was confirmed by immunoblotting with anti-CHD4 and anti-LANA antibody. FIG. 3c. Evaluating of caspase and proteasome in CHD4 cleavage by VGN73. BC3 cells were pretreated with pan-caspase inhibitor. Z-VAD-FMK (50 μM) or proteasome inhibitor, bortezomib (25 nM) for 1 hour, followed by treated with VGN73 (18 μM) for 8 hours. The respective protein band was confirmed by immunoblotting with anti-CHD4 antibody.
BC3 cells and BCBL-1 cells were treated with VGN73 at the concentration of IC50 for 24 hours. These cells were also treated with VGN73 in media without FBS. To evaluate the effect of VGN73 on CHD4 and LANA proteins in tissue culture, IFA and western blotting were carried out, and these gene expressions were evaluated by RT-qPCR. Moreover, BC3 cells were pretreated with pan-caspase inhibitor, Z-VAD-FMK (50 μM) or proteasome inhibitor, bortezomib (25 nM) for 1 hour, followed by treated with VGN73 (18 μM) for 8 hours. BC3 cells were pretreated with lysosome inhibitor, chloroquine (7.5 μM) for 1 hour, followed by treated with VGN73 (18 μM) for 24 hours. […]
To evaluate subcellular peptide localization, IFA was carried out (FIG. 2d). […] The exposure settings and image acquisition protocols were fixed in each imaging study to enable quantitative analysis. Mean LANA and CHD4 fluorescence (measured in arbitrary units, or A.U.) per cell was subsequently calculated using onboard software and/or NIH Image (FIG. 3a(b)). […]

[2] = system: primary effusion lymphoma (PEL) cells (BC3, BCBL-1); assay type: cell-based
Experimental: FIG. 4 VGN73 inhibits cell growth on various cancer cell types and induces apoptosis and autophagy in BC3 cells. FIG. 4a. MT assays were performed with the indicated cell lines treated with various VGN73 and mutant peptide concentrations for 24 hours. The OD of mock-treated samples were set as 100%, and OD from detergent-treated cells were set as 0%. Mean percentage viability±SD was calculated for each treatment (n=3 samples/treatment). FIG. 4b. VGN73 induces apoptosis. BC3 cells were incubated with of VGN73 (18 μM) for 0, 1, 4, and 24 hours, followed by measurements of percentage apoptosis induction (Annexin V staining) by flow cytometry. Median percentage apoptosis was calculated for each treatment time (n=3 samples/treatment time) (a). […] Cleaved caspase 3 were calculated by normalizing to untreated sample, and untreated sample set as 100% (b). […] Median percentage apoptosis was calculated for each treatment time (n=3 samples/treatment) (a). […] ratios were calculated by normalizing to untreated sample, and untreated sample set as 100% (b). […] Cell viability were determined by MTT assay (n=5 samples/treatment). *; p<0.05. **; p<0.01 versus the control group, #; p<0.05 versus the Z-VAD-FMK group.
The cytotoxic activity of VGN73 and mutant peptide were measured using the MTT assay. […] The optical densities (ODs) were measured at 570 nm with a Benchmark Plus Microplate Spectrophotometer (Bio-Rad). […]

[3] = molecular target: T2, full-length Flag-CHD4 (Homo sapiens, UniProt Q14839); experiment: Biolayer interferometry (BLI) binding kinetics of peptides to CHD4; details: N-biotinylated peptides immobilized, sequentially diluted full-length Flag-CHD4
T2 construct: made in house; host or cells: Sf9 (recombinant baculovirus)
T2 sequence (Q14839 whole entry): as above
Experimental: We next examined peptide binding sites on the CHD4 domain and measured affinity to further confirm the interaction. Multiple CHD4 deletion proteins were expressed and purified from recombinant baculovirus-infected Sf9 cells with Flag-agarose beads (FIG. 7a). An equal molecular amount of recombinant proteins was coated on an ELISA plate and increasing concentrations of biotinylated peptides were incubated. […] Binding affinity to the fill-length CHD4 was also calculated with Bio-Layer Interferometry (BLI). […] The N-biotinylated VGN73 or control peptides were first immobilized on a streptavidin-coated chip, and sequentially diluted full-length Flag-CHD4 proteins were applied. The interaction was then detected with interferometry.
To evaluate of binding kinetics of VGN73 and mutant peptide to CHD4, assays were carried out by biolayer interferometry (BLI) on Octet-Red 384 (ForteBio, CA, USA) at 30° C. with shaking at 1,000 RPM. Streptavidin (SA) tips (Sartorius, Goettingen, Germany) were dipped in 200 μL of biotinylated peptide (VGN73, mutant or TAT) solution (1 μM in 1× kinetic buffer) for the loading step. […] Binding kinetics was evaluated using a 1:1 binding model by ForteBio Data Analysis 8.1 software to obtain the dissociation constant KD.

Compound | recovery of full-length CHD4 by inhibitor pretreatment before VGN73 [1] | rescue from VGN73 cell death by Z-VAD-FMK pretreatment (MTT) ([2]; BC3 and BCBL-1, Z-VAD-FMK 40 μM 1 hr, VGN73 18 or 13 μM) | binding to CHD4 by BLI [3] | CHD4 cleavage (western blotting, total cell lysates) ([1]; BC3 and BCBL-1 cells, IC50 concentration, 24 hours) | cancer cell death in vitro tissue culture [2]
COC(=O)C[C@H](NC(=O)[C@H](C)NC(=O)[C@@H](NC(=O)OCc1ccccc1)C(C)C)C(=O)CF [Z-VAD-FMK] (Cbz-Val-Ala-Asp(OMe)-CH2F) | recovered full-length CHD4 | partially rescued BC3 and BCBL-1 from cell death | – | – | –
CC(C)C[C@H](NC(=O)[C@H](Cc1ccccc1)NC(=O)c1cnccn1)B(O)O [proteasome inhibitor, bortezomib] | not a proteasome inhibitor | – | – | – | –
{d-Arg}KKRR{ORN]RRR{β-Ala} (RKKRRXRRRA; d-Arg, ornithine, beta-Ala non-natural residues; Description of sequence: modified TAT amino acid sequence; SITE 1 d-arginine; MOD_RES 6 ORN; MOD_RES 10 beta-alanine) | – | – | not mutant or TAT alone binds to CHD4 | – | –
{d-Arg}KKRR{ORN}RRR{β-Ala}AKHAVISAGNDPYGLKK ([dR]KKRR[Orn]RRR[βAla]AKHAVISAGNDPYGLKK) [mutant peptide, mutant peptide with three amino acid changes at conserved amino acids] | – | – | mutations eliminated the interaction | did not have such effects | not mutant peptide
